According to US20240226128A1, “NOVEL COMPOUNDS WITH DUAL INHIBITION ACTIVITY AGAINST SARS-COV-2 CRITICAL ENZYMES RDRP, MPRO AND HUMAN TMPRSS2” (priority 2022, published 2024):

How the values were obtained:
[1] = system: SARS-CoV-2 (NRC-03-nhCoV strain); experiment: In vitro anti-SARS-CoV-2 activity of RH 1-23 compounds (Vero-E6 cells, crystal violet); type: cell-based
Description: The antiviral activity was carried out as previously described. Briefly, 96-well tissue culture plates were seeded with 2.4×10^4 Vero-E6 cells/and incubated overnight in Dulbecco's Modified Eagle's medium (DMEM) containing 10% Fetal Bovine Serum (FBS) and 1% penicillin/streptomycin antibiotic mixture at a humidified 37° C. incubator under 5% CO2. The cells were treated with SARS-CoV-2 (NRC-03-nhCoV strain, accession #EPI_ISL_430820) for viral adsorption, which was further overlaid with 50 μl DMEM containing varying concentrations of the tested compounds. Following incubation at 37° C. and 5% C02 for 72 h, the cells were fixed with 100 μl of 4% paraformaldehyde for 20 min and stained at room temperature with 0.1% crystal violet in distilled water for 15 min. The crystal violet dye was then dissolved in 100 μl methanol and the optical density of the obtained color was measured at 570 nm using Anthos Zenyth 200 rt plate reader (Anthos Labtec Instruments, Heerhugowaard, Netherlands).

SARS-CoV-2 = conditions: comparator, FDA approved drug; cited from earlier work

| SMILES | in vitro antiviral activity against SARS-CoV-2 [1] | in vitro antiviral activity against SARS-CoV-2 (SARS-CoV-2) |
| --- | --- | --- |
| CC(C)c1cc(=O)oc2ccc(OC(=O)c3ccc(NC(=N)N)cc3)cc12 [RH12, 4-guanidino-benzoic acid 4-isopropyl-2-oxo-2H-chromen-6-yl ester] | nM range |  |
| N#C[C@@]1(c2ccc3c(NC(=O)c4ccc(NC(=N)N)cc4)ncnn23)O[C@H](CO)[C@@H](O)[C@H]1O [RH11, (2R,3R,4S,5R)-N-[7-(2-cyano-3,4-dihydroxy-5-hydroxymethyl-tetrahydro-furan-2-yl)-pyrrolo[2,1-f]-[1,2,4]-triazin-4-yl]-4-guanidino-benzamide] | nM range |  |
| CC(C)C(=O)OC[C@H]1O[C@@H](n2ccc(NO)nc2=O)[C@H](O)[C@@H]1O [Molnupiravir] |  | μM range |
